Results from patent publication US20240226217A9, “METHOD FOR EXTRACTING AND PURIFYING TOTAL FLAVONOIDS FROM CARTHAMUS TINCTORIUS L. LEAF (TFFCL), AND USE THEREOF” (Shaanxi University of Chinese Medicine, priority 2022, published 2024).

System: mice with CCl4-induced chronic liver injury
Test: CCl4-induced chronic liver injury in mice
Format: in vivo
Details: 6 weeks
Description: SPF-grade male C57BL/6 mice were randomly divided into 5 groups, 12 mice in each group. The groups were a control group, a model group, a silibinin group (positive control group), a TFFCL low-dose group, and a TFFCL high-dose group. In addition to the control group, mice in the model group, positive control group, TFFCL low-dose group, and TFFCL high-dose group were intraperitoneally injected with 20% CCl4 (CCl4: olive oil=1:4, 2 mL/kg); mice in the control group were intraperitoneally injected with an equal amount of olive oil solution. Each group was injected twice a week for 6 weeks. The silibinin and TFFCL were separately suspended in 0.5% CMC-Na solution. The silibinin group, TFFCL-L group (low-dose), and TFFCL-H group (high-dose) were administered silibinin 100 mg/kg, TFFCL 20 mg/kg, and TFFCL 40 mg/kg by gavage, respectively; while the control group and the model group were intragastrically administered the same amount of 0.5% CMC-Na solution. Each group was given continuous intragastric administration once a day for 6 weeks. During the animal feeding, the body weight of mice was monitored and recorded weekly; 16 h after the last administration in the 6th week, blood was collected from the orbit of the mice, the liver and spleen of the mice were weighed and photographed, and wet weights of the liver and spleen were recorded. The organ index was calculated (organ index=organ mass/body mass×100%).

Compound: COc1cc(C2Oc3cc([C@H]4Oc5cc(O)cc(O)c5C(=O)[C@@H]4O)ccc3OC2CO)ccc1O (some centres unmarked) [Positive group, silibinin]
- Liver index (silibinin 100 mg/kg by gavage once a day): 4.42 ± 0.30 %
- Spleen index (silibinin 100 mg/kg): 0.35 ± 0.02%
- liver tissue CAT (silibinin 100 mg/kg): 262.23 ± 73.45 U/mg
- liver tissue GSH-PX (silibinin 100 mg/kg): 7.84 ± 3.75 U/mg
- liver tissue MDA (silibinin 100 mg/kg): 1.12 ± 0.28 nmol/mg
- liver tissue SOD (silibinin 100 mg/kg): 9.33 ± 2.47 U/mg
- serum ALT (silibinin 100 mg/kg): 80.58 ± 18.26 U/L
- serum AST (silibinin 100 mg/kg): 226.58 ± 45.39 U/L
- serum IL-1β (silibinin 100 mg/kg): 152.13 ± 30.49 pg/mL
- serum IL-6 (silibinin 100 mg/kg): 81.40 ± 15.12 pg/mL
- serum TNF-α (silibinin 100 mg/kg): 252.32 ± 34.16 pg/mL
